Earlier results as cited in paper PMC7767166, “Imidazole and Imidazolium Antibacterial Drugs Derived from Amino Acids” (Pharmaceuticals, 2020).
Marks after values point to notes of the source that are not given here.

How the values were obtained:
B. subtilis = tested on: B. subtilis; design: method as in PMID 26777771; conditions: cited from earlier work
MRC-5 cells = tested on: MRC-5 cells; design: method as in PMID 19407848; conditions: cited from earlier work

For Alamethicin, the “B. subtilis MIC” value (B. subtilis) is given as 16 µg/mL and the “IC50 (cytotoxicity against MRC-5 cells)” value (MRC-5 cells) is given as 62.5 ^f [42] μg/mL.
